Test: Storage stability of MMAM in an aqueous hydrogen peroxide composition with the surfactant under test
Format: physicochemical
Settings: 2 weight % Dowanol PnB added to the compositions of Example 1
Method: In this example, a number of surfactants were tested for their ability to stabilise methyl morpholinium acetonitrile methylsulphate (MMAM) in the presence of hydrogen peroxide.
The surfactant under test was added to an aqueous composition containing 1 weight % H2O2 and 1.1 weight % MMAM (1.7 weight % Sokalan BM) The active amount of surfactant in the composition was 1 weight %. In a control sample, no surfactant was added.

## CCCCOCC(C)O (stereo not shown) [Dowanol PnB, n-butyl monoether of propylene glycol]
  effect of solvent on stability: did not have a significant effect on stability
